Assay results as given in ChEMBL document CHEMBL1122941, “Design, synthesis, and pharmacological activities of 2-substituted 4-phenylquinolines as potential antidepressant drugs” (J Med Chem, 1985).

Experiments:
[1] = system: Mus musculus; test: Effective dose was evaluated for its antagonism to reserpine induced hypothermia in mice by intraperitoneal administration; type: functional; conditions: ip
[2] = Lethal dose was evaluated against reserpine induced hypothermia in mice by intraperitoneal administration; type: toxicity, organism-based; conditions: mouse, in vivo, ip
[3] = Therapeutic index as the ratio of LD50 to that of ED50 values.

Row | Structure (SMILES) | ED50 [1] | LD50 [2] | therapeutic index (LD50/ED50) [3]
1 | CN(C)CCCSc1cc(-c2ccccc2)c2ccccc2n1.Cl | > 50 mg/kg | 189 mg/kg | 
2 | Cl.c1ccc(-c2cc(N3CCNCC3)nc3ccccc23)cc1 | 12 mg/kg | 152 mg/kg | 12.7
3 | CN(C)CCCNc1cc(-c2ccccc2)c2ccccc2n1.Cl | > 50 mg/kg | 100 mg/kg | 
4 | CCN(CC)Cc1cc(-c2ccccc2)c2ccccc2n1.Cl | > 50 mg/kg | 163 mg/kg | 7.76
5 | CN(C)CCCOc1cc(-c2ccccc2)c2ccccc2n1.Cl | > 50 mg/kg | 200 mg/kg | 
6 | CN(C)CCNc1cc(-c2ccccc2)c2ccccc2n1.Cl | 26 mg/kg | 102 mg/kg | 3.92
7 | CN(C)CCSc1cc(-c2ccccc2)c2ccccc2n1.Cl | 42.1 mg/kg | 198 mg/kg | 4.7
8 | CN(C)CCN(C)c1cc(-c2ccccc2)c2ccccc2n1.Cl | 27 mg/kg | 98 mg/kg | 3.63
9 | CN(C)CCOc1cc(-c2ccccc2)c2ccccc2n1.Cl | 18.5 mg/kg | 202 mg/kg | 10.9
10 | Cl.O=c1n(CCCN2CCN(c3cc(-c4ccccc4)c4ccccc4n3)CC2)nc2ccccn12 | 40.2 mg/kg | 390 mg/kg | 9.7
11 | Cl.ClCCCN1CCN(c2cc(-c3ccccc3)c3ccccc3n2)CC1 | 18 mg/kg | 385 mg/kg | 21.4
12 | CN(C)CCCN(C)c1cc(-c2ccccc2)c2ccccc2n1.Cl | > 50 mg/kg | 110 mg/kg | 
13 | CN(C)CCCN1c2ccccc2CCc2ccccc21 [IMIPRAMINE] | 21 mg/kg |  | 
14 | c1ccc2nc(N3CCNCC3)ccc2c1 [QUIPAZINE] | 35.4 mg/kg | 135 mg/kg | 
15 | O=c1n(CCCN2CCN(c3cccc(Cl)c3)CC2)nc2ccccn12 [TRAZODONE] | > 50 mg/kg |  | 
